Here are results for two compounds from PMC5342726, “Identification of small molecule inhibitors of ERCC1-XPF that inhibit DNA repair and potentiate cisplatin efficacy in cancer cells” (Oncotarget, 2016).

Like-named read-outs stand apart in the source and are kept apart here.

Assay [1] addresses T1, ERCC1-XPF (Homo sapiens, UniProt P07992+Q92889).
T1 construct: made in house; host or cells: Sf9 insect cells, baculovirus (obtained from Aziz Sancar)
T1 sequence (Q92889 1-916): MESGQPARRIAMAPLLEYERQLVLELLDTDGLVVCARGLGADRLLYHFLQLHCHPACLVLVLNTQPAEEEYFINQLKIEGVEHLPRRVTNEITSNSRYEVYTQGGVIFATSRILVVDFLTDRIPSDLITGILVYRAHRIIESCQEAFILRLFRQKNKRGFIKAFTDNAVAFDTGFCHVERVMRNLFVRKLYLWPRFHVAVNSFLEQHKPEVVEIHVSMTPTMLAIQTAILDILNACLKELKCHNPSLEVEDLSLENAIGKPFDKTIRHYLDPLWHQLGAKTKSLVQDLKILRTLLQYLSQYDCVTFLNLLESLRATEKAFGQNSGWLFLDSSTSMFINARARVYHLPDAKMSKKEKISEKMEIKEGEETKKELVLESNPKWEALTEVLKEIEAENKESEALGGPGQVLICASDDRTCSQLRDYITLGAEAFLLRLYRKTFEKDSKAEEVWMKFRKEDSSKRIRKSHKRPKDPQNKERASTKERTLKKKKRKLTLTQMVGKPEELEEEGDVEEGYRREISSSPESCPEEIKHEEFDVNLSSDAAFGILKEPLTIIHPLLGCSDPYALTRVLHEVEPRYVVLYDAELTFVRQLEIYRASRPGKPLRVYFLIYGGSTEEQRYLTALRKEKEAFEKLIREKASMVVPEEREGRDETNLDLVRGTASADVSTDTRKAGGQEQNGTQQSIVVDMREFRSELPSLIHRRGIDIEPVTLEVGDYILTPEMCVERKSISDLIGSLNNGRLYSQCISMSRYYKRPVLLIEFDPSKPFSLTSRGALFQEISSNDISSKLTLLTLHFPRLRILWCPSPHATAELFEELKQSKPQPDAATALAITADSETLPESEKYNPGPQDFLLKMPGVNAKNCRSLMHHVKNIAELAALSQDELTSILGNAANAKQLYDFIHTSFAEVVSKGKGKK
T1 sequence (P07992 1-297): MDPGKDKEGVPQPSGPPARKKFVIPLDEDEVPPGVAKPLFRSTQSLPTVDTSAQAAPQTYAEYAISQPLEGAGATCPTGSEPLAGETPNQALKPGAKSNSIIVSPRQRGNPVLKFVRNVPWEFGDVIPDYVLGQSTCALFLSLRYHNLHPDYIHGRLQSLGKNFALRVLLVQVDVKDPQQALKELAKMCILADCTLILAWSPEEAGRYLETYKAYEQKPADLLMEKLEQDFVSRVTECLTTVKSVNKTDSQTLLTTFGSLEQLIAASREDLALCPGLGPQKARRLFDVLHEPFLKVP
The assay can be described thus: HTS fluorescence assay of ERCC1-XPF endonuclease activity. The assay is classed as biochemical. From the text: To screen for ERCC1-XPF inhibition, an existing in vitro assay was optimized to a 96-well plate format to allow for screening of compound libraries (NCI-DTP diversity set). These compounds and subsequent vialed compounds were from the Drug Synthesis and Chemistry Branch, Developmental Therapeutics Program, Division of Cancer Treatment and Diagnosis at the National Cancer Institute. We used purified ERCC1-XPF (Supplementary Figure S1) and describe the purification procedure in Supplementary Information. The initial cuvette-based assay was optimized for DNA, MgCl2 concentrations as well as the incubation time to be used in the fluorescence assay in a 96 well plate format (Supplementary Figure S2). The assay consists of a 10 nM DNA (Q+Fl substrate annealed, described below) and 7.5 nM ERCC1-XPF protein in buffer containing 50 mM Tris-HCl pH8.0, 2 mM MgCl2, 0.1 mM BSA, and 0.5 mM β-mercaptoethanol. For preliminary screening, 150 μL of DNA was added to each well and the fluorescence signal was measured at 525 nm following excitation at 485 nm. Compounds or controls were then added to individual wells for a total of 80 compounds on each plate and the fluorescent signal was re-measured. We initially ran the screen using 50 μM compound and then repeated using 10 μM compound. 16 controls were used per plate, which consisted of buffer alone, DNA alone, ERCC1-XPF alone, 10 nM fluorescein ssDNA (positive signal), and 10 nM Q-Fl DNA with 7.5 nM ERCC1-XPF (positive signal). 7.5 nM ERCC1-XPF was added to each well containing the compounds and DNA and incubated for 30 minutes at 37°C after which the fluorescent signal was measured again.
The synthetic DNA substrate mimics a native forked ssDNA-dsDNA substrate of ERCC1-XPF (Figure 1A). This forked DNA substrate has a dsDNA region (14 bases) and a region containing two ssDNA flaps (12 bases each). One 26-mer DNA oligonucleotide contains a site-specific fluorescein modification at the indicated position (Fl Oligo: 5' - GCCAGCGCTCGGAT(AminoC6dT)(FLSN) TTTTTTTTTTT). The semi-complementary strand was synthesized containing a DABCYL quencher (Q) molecule at the depicted position (Q Oligo: 5' - TTTTTTTTTTT (AminoC6dT)(Dabcyl) ATCCGAGCGCTGGC; Figure 1A). The fluorescein (*) molecule has an excitation peak centered at 485 nm and an emission peak centered at 525 nm. The quencher (Q) molecule is able to quench the fluorescence signal of the fluorescein when it is in close proximity. The design of the semi-duplex DNA substrate is such that the fluorescein and DABCYL quencher are directly opposite one another at the double-stranded and single-stranded DNA junction (Figure 1A). […] Upon cleavage by ERCC1-XPF, (~4-5 bases from the dsDNA-ssDNA) the fluorescein label on the cleaved DNA is released into solution and results in a significant increase in fluorescence as the quencher is no longer in close proximity. The DNA substrate is also incorporated with a restriction enzyme site (HhaI) within the duplex DNA that results in a cleavage pattern similar to ERCC1-XPF. This serves as a positive control and allows assessment of ERCC1-XPF cleavage product. This DNA substrate is used in the solution based fluorescence screening assay to screen for inhibitors of ERCC1-XPF endonuclease activity. In the 96 well platform, the Z factor was calculated to be ~0.87 indicating a highly robust assay and highly suitable for a HTS. A Molecular Devices Spectramax M5 plate reader was used for fluorescence detection. The DNA substrate was the same for gel-based assays besides the fluorescent/quencher modifications and 5'-labeling using γ-ATP^32. For the secondary screen, the reaction was setup in a tube with 10 nM DNA, 7.5 nM XPF-ERCC1, 20 U/ml of HhaI, or 7.5 nM XPG (Supplementary Figure S3A) in nuclease reaction buffer with compound titration and incubated at 37°C for 30 minutes. The reaction was stopped by chelating the metal in the buffer and read in the Spectramax M5 plate reader.

Assay [2] deals with HhaI. Put plainly: Gel-based nuclease assay, HhaI. The note with it: compound titration. The assay is classed as biochemical.
Where [3] appears, read: IC50s calculated by CompuSyn, SD from 3 plots, read-out: ERCC1-XPF IC50.

With `Oc1cc(O)c2c(c1)OC(c1ccc(O)c(O)c1)C(O)C2c1c(O)cc(O)c2c1OC(c1ccc(O)c(O)c1)C(O)C2` (centres unmarked) [NSC143099], the results for the IC50 in assay [1] (setting [3]) and in assay [1] (read-out: 50% inhibition of ERCC1-XPF) were 22 ± 3 nM and around 22 nM, respectively. In assay [2], the “inhibition of HhaI nuclease activity, gel-based assay” value is reported as “does not inhibit the nuclease activity”.

For `Cc1ccc(S(=O)(=O)Oc2cc(S(=O)(=O)O)cc3cc(S(=O)(=O)O)cc(N)c23)cc1` [NSC16168], the IC50 in assay [1] (setting [3]) was 420 ± 112 nM. In assay [2], the “inhibition of HhaI nuclease activity, gel-based assay” value is listed as “does not inhibit the nuclease activity”.
